# Test results taken from patent publication US20230375530A1, “HUMAN BLOOD-BRAIN BARRIER MODEL FOR IMMUNOLOGICAL STUDIES” (WISCONSIN ALUMNI RESEARCH FOUNDATION, priority 2020, published 2023).
# Tests used:
# [1] = system: hPSC-derived endothelial progenitors (Passage 1 ECs); test: Immunocytochemistry of Passage 1 ECs treated with Wnt ligands, CHIR or conditioned media; assay type: cell-based, human
# Method: Collagen IV (Sigma-Aldrich) was dissolved in 0.5 mg/mL acetic acid to a final concentration of 1 mg/mL. Collagen IV-coated plates were prepared by diluting a volume of this stock solution 1:100 in water, adding the resulting solution to tissue culture plates, or #1.5 glass bottom plates (Cellvis, Sunnyvale, CA) for cells intended for confocal imaging (1 mL per well for 6-well plates, 0.5 mL per well for 12-well plates, 0.25 mL per well for 24-well plates), and incubating the plates for 1 h at RT. Collagen IV coating solution was removed and EPCs obtained as described above were suspended in hECSR medium and plated at approximately 3×10^4 cells/cm^2. In some experiments, cells were suspended in NR-CM or Astro-CM. In some experiments, ligands and small molecules were added to hECSR medium: CHIR 99021 (Tocris) was used at 4 μM except where indicated; DMSO (Sigma-Aldrich) was used as a vehicle control for CHIR; Wnt3a (R&D Systems) was used at 20 ng/mL; Wnt7a (Peprotech, Rocky Hill, NJ) was used at 50 ng/mL; Wnt7b (Abnova, Tapei, Taiwan) was used at 50 ng/mL; R-spondin 1 (Rspo1; Peprotech) was used at 50 ng/mL; doxycycline was used at 1, 2, or 4 μg/mL. The hECSR medium or CM, including any ligands or small molecules, was replaced every other day until confluent (typically 6 days). We denote this time point “Passage 1.”
# Immunocytochemistry was performed in 24-well plates. Cells were washed once with 500 μL DPBS and fixed with 500 μL cold (−20° C.) methanol for 5 min, except cells intended for calponin/SM22a and CD31/Ki67 detection, which were fixed with 500 μL of 4% paraformaldehyde for 15 min. Cells were washed three times with 500 μL DPBS and blocked in 150 μL DPBS supplemented with 10% goat serum (Life Technologies) for 1 h at room temperature, except cells intended for calponin/SM22α detection, which were blocked and permeabilized in DPBS supplemented with 3% BSA and 0.1% Triton X-100, or cells intended for CD31/Ki67 detection, which were blocked and permeabilized in DPBS supplemented with 5% non-fat dry milk and 0.4% Triton X-100. Primary antibodies diluted in 150 μL of the above blocking solutions (see Table 6 for antibody information) were added to cells and incubated overnight at 4° C. on a rocking platform. Cells were washed three times with 500 μL DPBS. Secondary antibodies diluted in 150 μL of the above blocking solutions (see Table 6 for antibody information) were added to cells and incubated for 1 h at room temperature on a rocking platform, protected from light. Cells were washed three times with 500 μL DPBS, followed by 5 min incubation with 500 μL DPBS plus 4 μM Hoechst 33342 (Life Technologies). Images were acquired using an Eclipse Ti2-E epifluorescence microscope (Nikon, Tokyo, Japan) with a 20× objective or an A1R-Si+ confocal microscope (Nikon) with a 100× oil objective. Confocal images were acquired with 1 μm slice spacing.
# (§1) Images were analyzed using FIJI (ImageJ) software. For epifluorescence images, 5 fields (20×) were analyzed per well, with 3-4 wells per treatment condition. For quantification of cell number, EC colonies were manually outlined, and the Analyze Particles function was used to estimate the number of nuclei within the EC colonies. Nuclei outside the EC colonies were manually counted. EC purity (% EC) was calculated as the number of nuclei within EC colonies relative to total nuclei. To estimate % GLUT-1^+ ECs, cells within the EC colonies with membrane-localized GLUT-1 immunoreactivity (e.g., arrowheads in FIG. 24B) were manually counted. To estimate % Ki67^+ ECs, cells within the EC colonies with at least one nuclear-localized Ki67 punctum were manually counted. For quantification of fluorescence intensity in epifluorescence images, EC colonies were manually outlined, and the Measure function was used to obtain the mean fluorescence intensity for each image channel (fluorophore). A cell-free area of the plate was similarly quantified for background subtraction. […]
# [2] = system: matured hPSC-derived ECs (Passage 5); test: CHIR treatment in matured endothelium, immunocytochemistry; assay type: cell-based, human
# Method: For extended culture, ECs were selectively dissociated and replated as previously described (Nishihara et al., 2020). Cells were incubated with Accutase until endothelial cells appeared round, typically 2-3 min at 37° C. The plate was tapped to release the ECs while SMLCs remained attached, and the EC-enriched cell suspension transferred to 4× volume of DMEM/F-12 and centrifuged for 5 min, 200×g. Cells were resuspended in hECSR medium and seeded on a new collagen IV-coated plate at approximately 3×10^4 cells/cm^2. hECSR medium was replaced every other day until confluent (typically 6 days). The selective dissociation and seeding described above was repeated, and hECSR medium was again replaced every other day until confluent (typically 6 days). We denote this time point “Passage 3.” In one experiment, these steps were repeated for another two passages. Except where indicated, CHIR 99021 or vehicle (DMSO) was included in the hECSR medium for the entire duration of culture.
# Immunocytochemistry was performed in 24-well plates. […]
# as §1
# [3] = 4 μM CHIR vs control, Passage 1 ECs
smiles,measurement,setting,value
"Cc1c[nH]c(-c2cnc(NCCNc3ccc(C#N)cn3)nc2-c2ccc(Cl)cc2Cl)n1 [CHIR, CHIR 99021]",caveolin-1 expression vs DMSO,[1]; 2 μM CHIR,did not lead to increased caveolin-1 expression
same,claudin-5 or GLUT-1 expression vs control,[1]; 2 μM CHIR,did not elevate claudin-5 or GLUT-1 expression
same,EC number and EC purity,[1]; 2 μM CHIR vs 4 μM CHIR,less effective in increasing EC number and EC purity than 4 μM CHIR
same,increase in GLUT-1 abundance,[1]; [3],~30 fold
same,increase in average claudin-5 abundance,[1]; [3],approximately 1.5 fold
same,increase in caveolin-1,[1]; [3],4 fold
same,ECs with induced GLUT-1 expression,"[1]; 4 μM CHIR, Passage 1 ECs, IMR90-4",approximately 90%
same,"EC number, EC purity, claudin-5 expression",[1]; 6 μM CHIR vs 4 μM,"did not improve EC number, EC purity, or claudin-5 expression"
same,GLUT-1 abundance,[1]; 6 μM CHIR vs 4 μM,further increased GLUT-1 abundance
same,caveolin-1 abundance,[1]; 6 μM CHIR vs 4 μM,further increased caveolin-1 abundance
same,increases in GLUT-1 abundance,[1]; CHIR treatment initiated immediately after MACS,10- to 40 fold
same,EC purity (proportion of ECs compared to SMLCs),"[1]; Passage 1 cultures, 6 days treatment",increasing EC purity to a level similar to that achieved with Wnt7a
same,"EC purity, EC number, caveolin-1 and GLUT-1 expression",[1]; additional hPSC line (WTC11),conserved
same,claudin-5 upregulation,[1]; additional hPSC line (WTC11),not apparent
same,reduction of PLVAP abundance,"[1]; confocal microscopy, Passage 1 ECs, CHIR vs DMSO",approximately 20%
same,increase in GLUT-1 abundance,"[2]; CHIR for 6 days after 4 passages, vs DMSO",approximately 1.5 fold
same,EC number,[2]; CHIR in matured ECs,slight decrease in EC number
same,claudin-5 expression,[2]; CHIR in matured ECs,variable effects
